Data taken from ChEMBL document CHEMBL5346950, “Development of Biaryl-Containing Aldo-Keto Reductase 1C3 (AKR1C3) Inhibitors for Reversing AKR1C3-Mediated Drug Resistance in Cancer Treatment” (J Med Chem, 2023).

How the values were obtained:
[1] = MRT (0 to infinity) in Sprague-Dawley rat at 10 mg/kg, IG measured for 5760 mins by LC-MS/MS analysis; type: ADME, organism-based; details: in vivo, po
[2] = Cmax in Sprague-Dawley rat at 10 mg/kg, IG measured for 5760 mins by LC-MS/MS analysis; type: ADME, organism-based; design: dose 10 mg/kg, time 5760 min, route ig; details: in vivo, po
[3] = target: Aldo-keto reductase family 1 member B10 (Homo sapiens, UniProt O60218); experiment: Inhibition of AKR1B10 (unknown origin) transfected in Escherichia coli BL21 (DE3) pLysS competent cells using pyridine-3-aldehyde as substrate assessed as inhibition of NADP+ dependent substrate oxidation incubated for 10 mins
Sequence of Aldo-keto reductase family 1 member B10 (O60218 whole entry): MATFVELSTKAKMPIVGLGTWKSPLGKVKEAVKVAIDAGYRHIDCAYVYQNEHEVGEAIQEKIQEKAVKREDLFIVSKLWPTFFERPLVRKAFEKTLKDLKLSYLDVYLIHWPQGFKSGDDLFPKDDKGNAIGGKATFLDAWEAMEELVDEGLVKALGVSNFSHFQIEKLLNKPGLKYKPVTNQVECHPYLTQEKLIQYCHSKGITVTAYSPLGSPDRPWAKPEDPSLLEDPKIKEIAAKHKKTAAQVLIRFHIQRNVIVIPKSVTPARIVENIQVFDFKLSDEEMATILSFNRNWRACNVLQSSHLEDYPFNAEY

MCF7 [4] = experiment: Synergistic antiproliferative activity against human MCF7 cells overexpressing AKR1C3 assessed as combination index at 10 uM incubated for 72 hrs in presence of doxorubicin at 20 nM by Chou-Talalay method; type: functional
[5] = Toxicity in BALB/c nude mouse xenografted with human MCF7 cells expressing AKR1C3 assessed as histopathological changes in kidney at 10 mg/kg, po administered every 2 days for 3 weeks in presence of doxorubicin by H and E staining based analysis; type: organism-based; details: in vivo, 504 h
[6] = Toxicity in BALB/c nude mouse xenografted with human MCF7 cells expressing AKR1C3 assessed as histopathological changes in liver at 10 mg/kg, po administered every 2 days for 3 weeks by H and E staining based analysis; type: organism-based; details: in vivo, 504 h
MCF7 [7] = experiment: Synergistic antiproliferative activity against human MCF7 cells overexpressing AKR1C3 assessed as dose reduction index for doxorubicin at 25 uM incubated for 72 hrs in presence of doxorubicin at 100 nM by Chou-Talalay method; type: functional
[8] = Toxicity in BALB/c nude mouse xenografted with human MCF7 cells expressing AKR1C3 assessed as histopathological changes in kidneys at 10 mg/kg, po administered every 2 days for 3 weeks by H and E staining based analysis; type: organism-based; details: in vivo, 504 h
MCF7 [9] = experiment: Synergistic antiproliferative activity against human MCF7 cells overexpressing AKR1C3 assessed as combination index at 25 uM incubated for 72 hrs in presence of doxorubicin at 200 nM by Chou-Talalay method; type: functional
[10] = target: Aldo-keto reductase family 1 member B1 (Homo sapiens, UniProt P15121); experiment: Inhibition of AKR1B1 (unknown origin) transfected in Escherichia coli BL21 (DE3) pLysS competent cells using pyridine-3-aldehyde as substrate assessed as inhibition of NADP+ dependent substrate oxidation incubated for 10 mins
MCF7 [11] = experiment: Synergistic antiproliferative activity against human MCF7 cells overexpressing AKR1C3 assessed as combination index at 10 uM incubated for 72 hrs in presence of doxorubicin at 100 nM by Chou-Talalay method; type: functional

**Q.** What does the source list for O=C(O)C1(c2ccc(-c3cc(Cl)cc(Cl)c3)c(F)c2)CC1?
**A.** MRT inf [1]: 36.6 h; Cmax [2]: 45500 ng/mL; IC50 [3]: > 10 µM; CI (MCF7 [4]): 0.36; Activity [5]: Non-Toxic; Activity [6]: Non-Toxic; Activity_index (MCF7 [7]): 5.813; Activity [8]: Non-Toxic; CI (MCF7 [9]): 0.274; IC50 [10]: > 10 µM; CI (MCF7 [11]): 0.326
